Laboratory results taken from paper PMC10629491 (RSC Advances, 2023).
“Also recorded” adds a separate entry of the source.

Tests used:
[1] = target: T1, mushroom tyrosinase (Agaricus bisporus, UniProt C7FF04); assay: Enzymatic assay for tyrosinase inhibition; format: biochemical; conditions: read-out: Inhibition% ± SEM
[2] = DPPH free radical scavenging assay; conditions: 517 nm; for DPPH (%): radical scavenging, concentration not given; for EC50: read-out: EC50 (DPPH radical scavenging)
[3] = target: T1, mushroom tyrosinase; assay: Determination of the inhibition type; format: biochemical; conditions: Lineweaver-Burk

T1 sequence (C7FF04 2-392): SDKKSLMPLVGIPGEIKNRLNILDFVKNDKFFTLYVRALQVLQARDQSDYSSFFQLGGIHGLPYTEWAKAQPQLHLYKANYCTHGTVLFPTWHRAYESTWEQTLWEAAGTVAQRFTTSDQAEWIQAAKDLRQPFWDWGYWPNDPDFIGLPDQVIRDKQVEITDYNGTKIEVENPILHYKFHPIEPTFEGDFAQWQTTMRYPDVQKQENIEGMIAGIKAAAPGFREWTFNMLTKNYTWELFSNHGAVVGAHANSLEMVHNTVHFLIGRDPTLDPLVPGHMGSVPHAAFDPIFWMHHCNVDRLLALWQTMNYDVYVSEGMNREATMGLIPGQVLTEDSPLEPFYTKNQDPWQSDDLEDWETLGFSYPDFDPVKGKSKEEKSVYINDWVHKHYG

Row | SMILES | inhibition at 50 µM [1] [%] | DPPH (%) [2] [%] | EC50 [2] [µM] | Km value with increasing inhibitor concentration ([3]; L-Dopa) | Vmax with increasing inhibitor concentration ([3]; L-Dopa) | inhibition type ([3]; inhibitor 0, 12.64, 25.29, 50.58 μM, L-Dopa 0.5-10.0 mM)
1 | Cc1c(O)c(=O)ccn1-c1cccc(C(=O)NN=Cc2ccccc2[N+](=O)[O-])c1 [6a, 3-(3-hydroxy-2-methyl-4-oxopyridin-1(4H)-yl)-N′-(2-nitrobenzylidene)benzohydrazide] | 46.1 ± 8.21 | 77.15 | 32 ± 10 |  |  | 
2 | Cc1c(O)c(=O)ccn1-c1cccc(C(=O)NN=Cc2ccc(F)cc2)c1 [6b, 3-(3-hydroxy-2-methyl-4-oxopyridin-1(4H)-yl)-N′-(4-fluorobenzylidene)benzohydrazide] | 43.1 ± 3.41 | 71.42 | 12 |  |  | 
3 | Cc1c(O)c(=O)ccn1-c1cccc(C(=O)NN=Cc2ccc(C#N)cc2)c1 [6c, 3-(3-hydroxy-2-methyl-4-oxopyridin-1(4H)-yl)-N′-(4-cyanobenzylidene)benzohydrazide] | 30.8 ± 2.85 | 43.67 | 216 ± 80 |  |  | 
4 | Cc1ccc(C=NNC(=O)c2cccc(-n3ccc(=O)c(O)c3C)c2)cc1 [6d, 3-(3-hydroxy-2-methyl-4-oxopyridin-1(4H)-yl)-N′-(4-methylbenzylidene)benzohydrazide] | 49 ± 7.51 | 39.13 | 369 ± 10 |  |  | 
5 | Cc1c(O)c(=O)ccn1-c1cccc(C(=O)NN=Cc2ccc(C(C)C)cc2)c1 [6e, 3-(3-hydroxy-2-methyl-4-oxopyridin-1(4H)-yl)-N′-(4-isopropylbenzylidene)benzohydrazide] | 41.7 ± 4.07 | 61.44 | 14 ± 10 |  |  | 
6 | COc1cccc(C=NNC(=O)c2cccc(-n3ccc(=O)c(O)c3C)c2)c1[N+](=O)[O-] [6f, 3-(3-hydroxy-2-methyl-4-oxopyridine-1(4H)-yl)-N′-(3-methoxy-2-nitrobenzylidene)benzohydrazide] | 34.8 ± 3.83 | 43.67 | 168 ± 30 |  |  | 
7 | Cc1c(O)c(=O)ccn1-c1cccc(C(=O)NN=Cc2ccc(Cl)cc2Cl)c1 [6g, 3-(3-hydroxy-2-methyl-4-oxopyridin-1(4H)-yl)-N′-(2,4-dichlorobenzylidene)benzohydrazide] | 28.1 ± 3.97 | 39.11 | 191 ± 70 |  |  | 
8 | Cc1c(O)c(=O)ccn1-c1cccc(C(=O)NN=Cc2cc([N+](=O)[O-])ccc2Cl)c1 [6h, 3-(3-hydroxy-2-methyl-4-oxopyridin-1(4H)-yl)-N′-(2-chloro-5-nitrobenzylidene)benzohydrazide] | 11.4 ± 2.59 | 31.91 | > 400 |  |  | 
9 | Cc1c(O)c(=O)ccn1-c1cccc(C(=O)NN=Cc2cc(Br)ccc2O)c1 [6i, 3-(3-hydroxy-2-methyl-4-oxopyridin-1(4H)-yl)-N′-(5-bromo-2-hydroxybenzylidene)benzohydrazide] | 49.6 ± 12.6 | 42.64 | 185 ± 130 | increased | not affected | competitive inhibitor; also recorded: competitive type of inhibition
10 | Cc1c(O)c(=O)ccn1-c1cccc(C(=O)NN=Cc2ccc([N+](=O)[O-])s2)c1 [6j, 3-(3-hydroxy-2-methyl-4-oxopyridin-1(4H)-yl)-N'-((5-nitrothiophen-2-yl)methylene)benzohydrazide] | 40.4 ± 5 | 42.74 | 383 ± 120 |  |  | 
11 | O=c1c(O)c(-c2ccc(O)c(O)c2)oc2cc(O)cc(O)c12 [Quercetin, reference compound] |  | 74.33 | 8.9 |  |  | 
